In patent US11753446B2, “Beta-hairpin peptidomimetics” (POLYPHOR AG, priority 2014, dated 2023):
Where a SMILES comes first, the peptide text is derived from it. [ ]: non-standard residue; d: D form. Tle = CC(C)(C)[C@H](N)C(=O)O; dDab = NCC[C@@H](N)C(=O)O; Orn = NCCC[C@H](N)C(=O)O; Dab = NCC[C@H](N)C(=O)O; Dap = NC[C@H](N)C(=O)O

Tests used:
[1] = tested on: human red blood cells (hRBC); experiment: Hemolysis: hemolytic activity at 100 μg/mL, 1 h at 37° C.; conditions: red cells of human, 1 h, 100
Outline: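 Peptides at 100 μg/mL incubated with washed 20% (v/v) human erythrocytes (~0.9×10^9 cells/mL) for 1 h at 37 °C with shaking. Released hemoglobin read at OD 540 nm in supernatant; 0% and 100% lysis from PBS/0.001% acetic acid and 2.5% Triton X-100.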

[2] = tested on: Escherichia coli ATCC 25922; type: cell-based; conditions: ATCC 25922
Outline: (§1)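 Peptide MICs were determined by NCCLS broth microdilution in cation-adjusted Mueller-Hinton II broth. Inoculum was about 10^6 CFU/mL, matched to 0.5 McFarland, with peptides in two-fold serial dilutions. The broth contained Polysorbate 80 at 0.002% final concentration.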

[3] = tested on: Acinetobacter baumannii DSM 30008; type: cell-based; conditions: DSM 30008
Outline: as §1

[4] = tested on: Klebsiella pneumoniae ATCC 13883; type: cell-based; conditions: ATCC 13883
Outline: as §1

Compound	Hemolysis at 100 μg/mL [1] [%]	Escherichia coli ATCC 25922 MIC [2] [µg/mL]	Acinetobacter baumannii DSM 30008 MIC [3] [µg/mL]	Klebsiella pneumoniae ATCC 13883 MIC [4] [µg/mL]
CC(C)[C@@H]1NC(=O)[C@H](CCCNC(=N)N)NC(=O)[C@@H](CCN)NC(=O)[C@H](C(C)C)NC(=O)[C@@H]2CSSC[C@H](NC1=O)C(=O)N[C@@H](Cc1ccc(O)cc1)C(=O)N[C@@H](CC(N)=O)C(=O)N[C@@H](CCCN)C(=O)N[C@H](CCN)C(=O)N[C@@H](CCN)C(=O)N[C@@H](Cc1c[nH]c3ccccc13)C(=O)N[C@@H](CO)C(=O)N[C@@H](Cc1ccc(O)cc1)C(=O)N2 [Example 57, cyclo(-Val-Cys-Tyr-Asn-Orn-^DDab-Dab-Trp-Ser-Tyr-Cys-Val-^DDab-Arg-)] (HELM PEPTIDE1{C.V.[NCC[C@@H](N[*:1])C(=O)[*:2]].R.V.C.Y.N.[Orn].[NCC[C@@H](N[*:1])C(=O)[*:2]].[Dab].W.S.Y}$PEPTIDE1,PEPTIDE1,1:R3-6:R3|PEPTIDE1,PEPTIDE1,1:R1-14:R2$$$V2.0)	1	1	1.25	1.5
CC(C)[C@@H]1NC(=O)[C@H](C)NC(=O)[C@@H](C)NC(=O)[C@H](CO)NC(=O)[C@@H]2CC(=O)NCC[C@H](NC1=O)C(=O)N[C@@H](Cc1ccc(O)cc1)C(=O)N[C@@H](CCN)C(=O)N[C@@H](CCN)C(=O)N[C@H](CCN)C(=O)N[C@@H](CCN)C(=O)N[C@@H](Cc1c[nH]c3ccccc13)C(=O)N[C@@H](CCN)C(=O)N[C@@H](C(C)(C)C)C(=O)N2 [Example 30, cyclo(-Val-Dab-Tyr-Dab-Dab-^DDab-Dab-Trp-Dab-tBuGly-Asp-Ser-^DAla-Ala-)] (HELM PEPTIDE1{A.V.[Dab].Y.[Dab].[Dab].[NCC[C@@H](N[*:1])C(=O)[*:2]].[Dab].W.[Dab].[CC(C)(C)[C@H](N[*:1])C(=O)[*:2]].D.S.[dA]}$PEPTIDE1,PEPTIDE1,3:R3-12:R3|PEPTIDE1,PEPTIDE1,1:R1-14:R2$$$V2.0)	1	1	8	2
CC(C)C[C@@H]1NC(=O)[C@@H]2CCCN2C(=O)[C@@H](C)NC(=O)[C@H](CO)NC(=O)[C@@H]2CCNC(=O)C[C@H](NC1=O)C(=O)N[C@@H](Cc1ccc(O)cc1)C(=O)N[C@@H](CCN)C(=O)N[C@@H](CCCN)C(=O)N[C@H](CCN)C(=O)N[C@@H](CCN)C(=O)N[C@@H](Cc1c[nH]c3ccccc13)C(=O)N[C@@H](CCN)C(=O)N[C@@H](Cc1ccc(O)cc1)C(=O)N2 [Example 77, cyclo(-Leu-Asp-Tyr-Dab-Orn-^DDab-Dab-Trp-Dab-Tyr-Dab-Ser-^DAla-Pro-)] (HELM PEPTIDE1{L.D.Y.[Dab].[Orn].[NCC[C@@H](N[*:1])C(=O)[*:2]].[Dab].W.[Dab].Y.[Dab].S.[dA].P}$PEPTIDE1,PEPTIDE1,2:R3-11:R3|PEPTIDE1,PEPTIDE1,1:R1-14:R2$$$V2.0)	1	1.5	3	2
CC(C)C[C@@H]1NC(=O)[C@H](CCCNC(=N)N)NC(=O)[C@H]2CCCN2C(=O)[C@H](C(C)C)NC(=O)[C@@H]2CSSC[C@H](NC1=O)C(=O)N[C@@H](Cc1ccc(O)cc1)C(=O)N[C@@H](CC(N)=O)C(=O)N[C@@H](CCCN)C(=O)N[C@H](CCN)C(=O)N[C@@H](CCN)C(=O)N[C@@H](Cc1c[nH]c3ccccc13)C(=O)N[C@@H](CCN)C(=O)N[C@@H](Cc1ccc(O)cc1)C(=O)N2 [Example 78, cyclo(-Leu-Cys-Tyr-Asn-Orn-^DDab-Dab-Trp-Dab-Tyr-Cys-Val-^DPro-Arg-)] (HELM PEPTIDE1{C.V.[dP].R.L.C.Y.N.[Orn].[NCC[C@@H](N[*:1])C(=O)[*:2]].[Dab].W.[Dab].Y}$PEPTIDE1,PEPTIDE1,1:R3-6:R3|PEPTIDE1,PEPTIDE1,1:R1-14:R2$$$V2.0)	1	1.5	1.5	1
C[C@@H]1NC(=O)[C@H](C(C)(C)C)NC(=O)[C@H](CCN)NC(=O)[C@H](Cc2c[nH]c3ccccc23)NC(=O)[C@H](CCN)NC(=O)[C@@H](CCN)NC(=O)[C@H](CCCN)NC(=O)[C@H](CCN)NC(=O)[C@H](Cc2ccc(O)cc2)NC(=O)[C@H](CN)NC(=O)[C@H](Cc2ccccc2)NC(=O)[C@@H]2CCCN2C(=O)[C@@H](CCN)NC(=O)[C@H](CO)NC1=O [Example 50, cyclo(-Phe-Dap-Tyr-Dab-Orn-^DDab-Dab-Trp-Dab-tBuGly-Ala-Ser-^DDab-Pro-)] (cyclo(AS[dDab]PF[Dap]Y[Dab][Orn][dDab][Dab]W[Dab][Tle]))	11	1	2	0.5
CC(C)C[C@@H]1NC(=O)[C@H](CCCNC(=N)N)NC(=O)[C@@H](CCN)NC(=O)[C@H](C(C)C)NC(=O)[C@@H]2CSSC[C@H](NC1=O)C(=O)N[C@@H](Cc1ccc(O)cc1)C(=O)N[C@@H](C)C(=O)N[C@@H](CCCN)C(=O)N[C@H](CCN)C(=O)N[C@@H](CCN)C(=O)N[C@@H](Cc1c[nH]c3ccccc13)C(=O)N[C@@H](C)C(=O)N[C@@H](Cc1ccc(O)cc1)C(=O)N2 [Example 23, cyclo(-Leu-Cys-Tyr-Ala-Orn-^DDab-Dab-Trp-Ala-Tyr-Cys-Val-^DDab-Arg-)] (HELM PEPTIDE1{A.[Orn].[NCC[C@@H](N[*:1])C(=O)[*:2]].[Dab].W.A.Y.C.V.[NCC[C@@H](N[*:1])C(=O)[*:2]].R.L.C.Y}$PEPTIDE1,PEPTIDE1,8:R3-13:R3|PEPTIDE1,PEPTIDE1,1:R1-14:R2$$$V2.0)	1	2	0.75	1
CCC[C@@H]1NC(=O)[C@H](CCCNC(=N)N)NC(=O)[C@@H](CCN)NC(=O)[C@H](C(C)C)NC(=O)[C@@H]2CSSC[C@H](NC1=O)C(=O)N[C@@H](Cc1ccc(O)cc1)C(=O)N[C@@H](CC(N)=O)C(=O)N[C@@H](CCCN)C(=O)N[C@H](CCN)C(=O)N[C@@H](CCN)C(=O)N[C@@H](Cc1c[nH]c3ccccc13)C(=O)N[C@@H](CO)C(=O)N[C@@H](Cc1ccc(O)cc1)C(=O)N2 [Example 60, cyclo(-Nva-Cys-Tyr-Asn-Orn-^DDab-Dab-Trp-Ser-Tyr-Cys-Val-^DDab-Arg-)] (HELM PEPTIDE1{C.V.[NCC[C@@H](N[*:1])C(=O)[*:2]].R.[Nva].C.Y.N.[Orn].[NCC[C@@H](N[*:1])C(=O)[*:2]].[Dab].W.S.Y}$PEPTIDE1,PEPTIDE1,1:R3-6:R3|PEPTIDE1,PEPTIDE1,1:R1-14:R2$$$V2.0)	1	1	0.75	1
